Experimental data taken from article PMC13258496, “Synthesis of Methoxylated Benzoxanthones as Drug Metabolites of Antischistosomal Schistodiones—A Limited Environmental Risk” (Molecules, 2026).

System: S. aureus
Assay: Primary antibacterial screening
Format: cell-based
Conditions: Staphylococcus aureus
Method: The cytotoxicity of the same compounds was evaluated against human fibroblasts (hMRC-5) and mouse macrophages (PMM). All assays were carried out with parent benzylMD (PD, SD-A2′,5′, SD-A3′,5′) and control drug references.
The primary in vitro evaluation of test compounds at LMPH is performed against a broad panel of pathogens to allow proper evaluation of selectivity. Compound stock solutions are prepared in 100% DMSO at 20 mM. The compounds are serially pre-diluted (two-fold or four-fold) in DMSO followed by a further (intermediate) dilution in demineralized water to assure a final in-test DMSO concentration of <1%.

- IC50: 11.3 µM
SMILES: CC[C@H]1OC(=O)[C@H](C)[C@@H](O[C@H]2C[C@@](C)(OC)[C@@H](O)[C@H](C)O2)[C@H](C)[C@@H](O[C@@H]2O[C@H](C)C[C@H](N(C)C)[C@H]2O)[C@](C)(O)C[C@@H](C)C(=O)[C@H](C)[C@@H](O)[C@]1(C)O [Erythromycin]
